# Assay results from PubChem BioAssay (NCI).
#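 Grown in 96-well plates, cells were treated for 48 hours with each compound at five concentrations. Insufficient inhibition: endpoint recorded as highest concentration tested. GI50 is the concentration that inhibits growth by half. TGI: total growth inhibition.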 Where a SMILES comes first, the peptide text is derived from it. [ ]: non-standard residue; d: D form. The star is where a group is joined. ξ: configuration not given here. ξF = NC(Cc1ccccc1)C(=O)O; Cbz = O=C(OCc1ccccc1)*
# Legend:
# Assay in all cases: inhibition of tumour cell growth, NCI panel, 48 h
# [1] = system: SK-OV-3 ovarian
# [2] = system: OVCAR-8 ovarian
# [3] = system: PC-3 prostate
# [4] = system: EKVX NSCLC
# [5] = system: OVCAR-5 ovarian
# [6] = system: COLO 205 colon
# [7] = system: TK-10 renal
# [8] = system: RXF 393 renal
# [9] = system: HS 578T breast
# [10] = system: HOP-92 NSCLC
structure (smiles),measurement,setting,value
COC(=O)c1cc(S(=O)(=O)NC2=NCC(C)NN2)c(S)cc1Cl (stereo unspecified),TGI,[1],> 100 µM
same,TGI,[2],> 100 µM
same,TGI,[3],> 100 µM
same,TGI,[4],> 100 µM
same,TGI,[5],> 100 µM
same,TGI,[6],> 100 µM
same,TGI,[7],> 100 µM
Cc1ccc(N=N/C(=N/NC(=O)c2ccccc2)c2ccc(N(CCC#N)CCC#N)cc2C)cc1,TGI,[1],> 100 µM
same,TGI,[2],> 100 µM
same,TGI,[8],> 100 µM
same,TGI,[3],> 100 µM
same,TGI,[4],> 100 µM
same,TGI,[5],> 100 µM
same,TGI,[6],> 100 µM
same,TGI,[7],> 100 µM
same,TGI,[9],46.9 µM
CCOC(=O)C1(C/C=C\CBr)CCCC1=O (stereo unspecified),TGI,[1],> 100 µM
same,TGI,[2],> 100 µM
same,TGI,[8],31.3 µM
same,TGI,[3],> 100 µM
same,TGI,[4],> 100 µM
same,TGI,[5],> 100 µM
same,TGI,[6],> 100 µM
same,TGI,[7],39 µM
same,TGI,[9],> 100 µM
Cc1[nH]n(-c2nc3c(c(=O)[nH]2)CCCC3)c(=O)c1CCO,TGI,[1],> 100 µM
same,TGI,[2],> 100 µM
same,TGI,[8],> 100 µM
same,TGI,[3],> 100 µM
same,TGI,[4],> 100 µM
same,TGI,[5],> 100 µM
same,TGI,[6],> 100 µM
same,TGI,[7],> 100 µM
same,TGI,[9],> 100 µM
c1cc(-c2ccc(-c3ccsc3)s2)cs1,TGI,[1],> 100 µM
same,TGI,[2],> 100 µM
same,TGI,[8],> 100 µM
same,TGI,[4],> 100 µM
same,TGI,[5],> 100 µM
same,TGI,[10],> 100 µM
same,TGI,[6],> 100 µM
same,TGI,[7],> 100 µM
same,TGI,[9],> 100 µM
O=C(c1ccc(Cl)cc1)N(C(=O)N1CCCCC1)c1ccccc1,TGI,[1],> 100 µM
same,TGI,[2],> 100 µM
same,TGI,[3],> 100 µM
same,TGI,[4],> 100 µM
same,TGI,[5],> 100 µM
same,TGI,[6],> 100 µM
same,TGI,[9],> 100 µM
NNc1nnc(CCCCCCCCc2nnc(NN)n2N)n1N,TGI,[1],> 100 µM
same,TGI,[2],76.7 µM
same,TGI,[8],> 100 µM
same,TGI,[3],> 100 µM
same,TGI,[4],> 100 µM
same,TGI,[5],> 100 µM
same,TGI,[10],> 100 µM
same,TGI,[6],> 100 µM
same,TGI,[7],> 100 µM
Cc1cc(C)c(-c2no/c(=N\S(=O)(=O)c3ccc(Cl)cc3)o2)c(C)c1,TGI,[1],> 100 µM
same,TGI,[2],> 100 µM
same,TGI,[8],> 100 µM
same,TGI,[3],> 100 µM
same,TGI,[4],> 100 µM
same,TGI,[5],> 100 µM
same,TGI,[6],> 100 µM
same,TGI,[7],> 100 µM
same,TGI,[9],> 100 µM
CC(=O)NC1C(OCC(=O)NCCNc2ccc([N+](=O)[O-])c3[nH]c4ccccc4c(=O)c23)C(O)C(CO)OC1(C)OCc1ccccc1 (stereo unspecified),TGI,[1],> 100 µM
same,TGI,[2],> 100 µM
same,TGI,[8],> 100 µM
same,TGI,[3],> 100 µM
same,TGI,[4],> 100 µM
same,TGI,[5],> 100 µM
same,TGI,[6],> 100 µM
same,TGI,[7],> 100 µM
same,TGI,[9],> 100 µM
CCOC(=O)CNC(=O)C(Cc1ccccc1)NC(=O)OCc1ccccc1 (stereo unspecified) (Cbz-[ξF]-Gly-OEt),TGI,[1],> 100 µM
same,TGI,[2],> 100 µM
same,TGI,[3],> 100 µM
same,TGI,[4],> 100 µM
same,TGI,[5],> 100 µM
same,TGI,[10],> 100 µM
same,TGI,[6],> 100 µM
same,TGI,[9],> 100 µM
O=c1[nH]c(N/N=C\C(O)C(O)C(O)C(O)CO)nc2ccccc12 (stereo unspecified),TGI,[1],> 100 µM
same,TGI,[2],> 100 µM
same,TGI,[3],> 100 µM
same,TGI,[4],> 100 µM
same,TGI,[5],> 100 µM
same,TGI,[10],> 100 µM
same,TGI,[6],> 100 µM
same,TGI,[7],> 100 µM
same,TGI,[9],> 100 µM
Cc1cc(N(CCC#N)CCC#N)ccc1/C(N=Nc1ccccc1)=N\NC(=O)c1cc(Cl)ccc1O,TGI,[1],> 100 µM
same,TGI,[2],81.5 µM
same,TGI,[8],70.2 µM
same,TGI,[3],> 100 µM
same,TGI,[4],> 100 µM
same,TGI,[6],39.1 µM
same,TGI,[7],52.2 µM
same,TGI,[9],80.2 µM
CCOC(=O)c1cn(CC)c(=O)n2c1nc1ccccc12,TGI,[2],> 100 µM
same,TGI,[8],> 100 µM
same,TGI,[3],> 100 µM
same,TGI,[4],> 100 µM
same,TGI,[5],> 100 µM
same,TGI,[10],> 100 µM
same,TGI,[6],> 100 µM
COc1cc(C2c3cc4c(cc3OC(NN)C2C)OCO4)cc(OC)c1O (stereo unspecified),TGI,[2],67.8 µM
same,TGI,[8],> 100 µM
same,TGI,[3],> 100 µM
same,TGI,[5],> 100 µM
same,TGI,[10],> 100 µM
same,TGI,[6],40.4 µM
same,TGI,[7],90.6 µM
CC1(C)O[C@@H]2[C@@H](COC(C)(C)O[C@H]2C2SCCCS2)O1,TGI,[1],> 100 µM
same,TGI,[2],> 100 µM
same,TGI,[8],> 100 µM
same,TGI,[3],> 100 µM
same,TGI,[5],> 100 µM
same,TGI,[10],> 100 µM
same,TGI,[6],> 100 µM
CSc1nncc(-c2cc3c(c(SC)n2)CCCC3)n1,TGI,[1],> 100 µM
same,TGI,[2],> 100 µM
same,TGI,[8],> 100 µM
same,TGI,[3],> 100 µM
same,TGI,[4],> 100 µM
same,TGI,[5],> 100 µM
same,TGI,[6],> 100 µM
same,TGI,[7],> 100 µM
COC(CN(C)C(=S)Nc1cccc2ccccc12)OC,TGI,[1],> 10 µM
same,TGI,[2],> 10 µM
same,TGI,[8],> 10 µM
same,TGI,[3],> 10 µM
same,TGI,[4],> 10 µM
same,TGI,[6],> 10 µM
same,TGI,[7],> 10 µM
same,TGI,[9],> 10 µM
O=C1CC(c2cccc(Cl)c2)Nc2ccc(N3CCCC3)cc21 (stereo unspecified),TGI,[1],> 100 µM
same,TGI,[2],3.85 µM
same,TGI,[8],0.0845 µM
same,TGI,[3],> 100 µM
same,TGI,[4],> 100 µM
same,GI50,[10],0.135 µM
same,TGI,[10],> 100 µM
same,GI50,[7],> 100 µM
same,TGI,[7],> 100 µM
Cn1c2ccccc2c(=O)c2c(O)cc3c(c21)C1OCC(C)(O)C1O3 (stereo unspecified),TGI,[1],> 100 µM
same,TGI,[2],> 100 µM
same,TGI,[8],69 µM
same,TGI,[3],> 100 µM
same,TGI,[4],> 100 µM
same,TGI,[5],> 100 µM
same,TGI,[6],> 100 µM
same,TGI,[7],> 100 µM
same,TGI,[9],37.5 µM
CCN1CCC(O)(c2ccc([N+](=O)[O-])cc2)C(C(=O)c2ccc([N+](=O)[O-])cc2)C1 (stereo unspecified),TGI,[1],> 100 µM
same,TGI,[2],81.9 µM
same,TGI,[8],30 µM
same,TGI,[3],> 100 µM
same,TGI,[4],37.6 µM
same,TGI,[5],> 100 µM
same,TGI,[6],28.1 µM
same,TGI,[7],32.4 µM
same,TGI,[9],61.7 µM
